The values that follow come from article PMC11443518, “Undescribed Amaryllidaceae Alkaloids from Zephyranthes citrina and Their Cytotoxicity” (Journal of Natural Products, 2024).

Test [1] deals with A2780 (ovarian carcinoma). The test can be described thus: WST-1 cell proliferation assay, cytotoxicity screening. The format is cell-based. Particulars: Homo sapiens, read-out: growth percent (GP) A2780. Summed up: (§1)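 Single-concentration screen: alkaloids at 10 μM final over 48 h, with doxorubicin 1 μM as positive control. Growth is reported relative to untreated cells set at 100%.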
In general terms: Formazan colour is commonly taken as a measure of viable cells.

The subject of a further test is A549 (lung carcinoma). The description is as above. The format is cell-based. To be noted: Homo sapiens, read-out: growth percent (GP) A549. An outline of the steps:
as §1

Test [2] deals with HT-29 (colorectal adenocarcinoma). The description is as above. In kind it is cell-based. Particulars: Homo sapiens, read-out: growth percent (GP) HT-29. Summed up: as §1
Test [3] has as its system HeLa (cervix adenocarcinoma). The test is described as above. The format is cell-based. To be noted: Homo sapiens, 48 h, read-out: growth percent (GP) HeLa. Summed up:
as §1

In test [4] the test system is Jurkat (acute T-cell leukemia). The description is as above. The format is cell-based. Particulars: Homo sapiens, 48 h, read-out: growth percent (GP) Jurkat. An outline of the steps: as §1
In test [5] the test system is MRC-5 (nontumor lung fibroblasts). The description is as above. In kind it is cell-based. Particulars: Homo sapiens, read-out: growth percent (GP) MRC-5. Summed up: as §1
In test [6] the test system is PANC-1 (pancreas epithelioid carcinoma). The test is described as above. The format is cell-based. Particulars: Homo sapiens, read-out: growth percent (GP) PANC-1. Summed up: as §1
The next test has as its system SAOS-2 (osteosarcoma). The description is as above. In kind it is cell-based. Particulars: Homo sapiens, read-out: growth percent (GP) SAOS-2. An outline of the steps:
as §1

Test [7] has as its system MCF-7 (breast adenocarcinoma). The description is as above. In kind it is cell-based, human. Particulars: Homo sapiens, read-out: growth percent (GP) MCF-7. An outline of the steps:
as §1

Test [8] relates to MOLT-4 (acute lymphoblastic leukemia). The test is described as above. In kind it is cell-based, human. Particulars: Homo sapiens, read-out: growth percent (GP) MOLT-4. An outline of the steps:
as §1

The target in the next test is T1, hAChE (Homo sapiens, UniProt P22303).
T1 construct: purchased University Hradec Kralove, Department of Chemistry, Faculty of Science
The test can be described thus: biochemical. The format is biochemical. To be noted: recombinant AChE, Ellman, 37 °C. The method, then: (§2) The hAChE and hBChE activities were determined using a modified method of Ellman, as described by Hrabinova and co-workers against recombinant AChE and recombinant BChE (purchased from University Hradec Kralove, Department of Chemistry, Faculty of Science).[43] Other used chemicals were phosphate buffer solution (PBS, pH = 7.4), 5,5′-dithio-bis(2-nitrobenzoic) acid (Ellman’s reagent, DTNB), acetylthiocholine iodide (ATChI), butyrylthiocholine iodide (BTChI), and dimethyl sulfoxide (DMSO) (all chemicals were purchased from Sigma-Aldrich, Prague, Czech Republic).
(§3) Briefly, 8.3 μL of the corresponding enzyme, 283 μL of 5 mM DTNB, and 8.3 μL of the sample dilution in DMSO in different concentrations were added to the microplate. These solutions were incubated for 5 min at 37 °C. Then, 33.3 μL of 10 mM substrate (ATChI or BTChI) was added to initiate the reaction, and the whole reaction mixture was incubated for 2 min at 37 °C. […] This difference after 1 min was used to calculate the percentage of inhibitory potential of the given derivative. Each measurement was repeated three times for every concentration of the compound. 8.3 μL DMSO was used as a blank. The % inhibition was calculated according to the following formula: [drawing 3] where ΔABl is the increase of absorbance of the blank sample and ΔASa is the increase of absorbance of the measured sample.
(In Ellman's method for cholinesterases, released thiocholine reacts with DTNB.)

In a further test the target is T2, hBChE (Homo sapiens, UniProt P06276).
T2 construct: purchased University Hradec Kralove, Department of Chemistry, Faculty of Science
The test can be described thus: biochemical. In kind it is biochemical. Particulars: recombinant BChE, Ellman, 37 °C. The method, then:
as §2, §3

The test system of test [9] is nine human tumor and one nontumor cell lines. Kind of test: Cytotoxicity screening across the whole panel of cell lines. The format is cell-based. Particulars: Homo sapiens, read-out: GP value across the tested cell lines.
Where [10] appears, read: c = 10 μM, % of proliferation of nontreated control.

Read-outs that look alike come from different tables or passages of the source.

T1 sequence (P22303 32-614): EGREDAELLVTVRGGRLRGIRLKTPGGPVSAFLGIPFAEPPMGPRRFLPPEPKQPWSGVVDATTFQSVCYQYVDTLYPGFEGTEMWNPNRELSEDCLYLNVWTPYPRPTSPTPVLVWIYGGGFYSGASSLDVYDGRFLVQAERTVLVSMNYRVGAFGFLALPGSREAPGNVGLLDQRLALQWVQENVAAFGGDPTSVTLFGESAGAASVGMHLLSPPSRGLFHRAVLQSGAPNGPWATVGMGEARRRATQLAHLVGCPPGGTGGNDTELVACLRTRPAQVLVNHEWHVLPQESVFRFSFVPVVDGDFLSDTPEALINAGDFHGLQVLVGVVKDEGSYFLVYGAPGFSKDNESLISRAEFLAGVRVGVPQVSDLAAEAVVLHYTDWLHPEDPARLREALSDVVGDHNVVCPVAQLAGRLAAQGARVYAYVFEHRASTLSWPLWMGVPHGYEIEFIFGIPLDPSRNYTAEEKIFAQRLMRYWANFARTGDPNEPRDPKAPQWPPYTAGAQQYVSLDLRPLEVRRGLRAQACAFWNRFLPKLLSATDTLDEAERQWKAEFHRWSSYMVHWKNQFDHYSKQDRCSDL
T2 sequence (P06276 29-602): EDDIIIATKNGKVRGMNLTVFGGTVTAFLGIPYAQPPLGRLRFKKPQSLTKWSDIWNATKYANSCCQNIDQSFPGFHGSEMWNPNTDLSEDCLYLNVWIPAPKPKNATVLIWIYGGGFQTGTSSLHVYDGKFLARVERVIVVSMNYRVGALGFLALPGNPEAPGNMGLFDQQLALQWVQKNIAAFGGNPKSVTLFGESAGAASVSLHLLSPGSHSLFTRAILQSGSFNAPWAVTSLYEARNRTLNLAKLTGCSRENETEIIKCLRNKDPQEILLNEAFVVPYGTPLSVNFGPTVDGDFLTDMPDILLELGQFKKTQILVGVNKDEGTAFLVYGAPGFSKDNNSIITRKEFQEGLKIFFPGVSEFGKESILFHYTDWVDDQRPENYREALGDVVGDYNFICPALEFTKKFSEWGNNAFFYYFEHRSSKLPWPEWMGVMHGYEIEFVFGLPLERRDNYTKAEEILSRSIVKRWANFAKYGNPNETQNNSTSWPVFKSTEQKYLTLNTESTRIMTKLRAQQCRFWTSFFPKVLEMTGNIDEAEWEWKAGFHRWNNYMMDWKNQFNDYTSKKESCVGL

As usually defined, the IC50 is the point on the concentration scale where inhibition reaches its midpoint. Turning to `CCO[C@H]1c2cc(OC)c(OC)c(O)c2[C@@]23CC[C@H](OC)C[C@@H]2N1CC3` [Compound 3, 6-O-ethylzephyranine F], the activity at 10 µM came out at 110% in test [1] (A2780, 48 h); 103% with A549 (lung carcinoma) (A549, 48 h); 103% in test [2] (HT-29, 48 h); 108% in [3]; 108% in [4]; 104% in test [5] (MRC5, 48 h). Further, the activity at 10 µM in test [6] (PANC-1, 48 h) is 101%; in the test on SAOS-2 (osteosarcoma) (SAOS-2, 48 h), 99%; in test [7] (MCF7, 48 h) it was 97%; in test [8] (MOLT-4, 48 h), 101%; in test [9] (48 h) it was greater than 50%. Moreover, the IC50 at hAChE and on hBChE was greater than 100 µM throughout.
As for `COc1cc2c(cc1OC)[C@@H]1[C@H](O)[C@@H](OC)[C@H](O)C3=CCN(C2)[C@H]31` [Compound 6, narcissidine], the activity at 10 µM in test [1] (A2780, c = 10 μM, 48 h, % of proliferation of nontreated control) is 101%; in the test on A549 (lung carcinoma) (A549, c = 10 μM, 48 h, % of proliferation of nontreated control), 113%; in test [2] (HT-29, c = 10 μM, 48 h, % of proliferation of nontreated control) it was 108%; in test [3] (setting [10]) it was 123%; in [4] (setting [10]), 111%; in [5] (MRC5, c = 10 μM, 48 h, % of proliferation of nontreated control) it was 101%. Besides, the activity at 10 µM in test [6] (PANC-1, c = 10 μM, 48 h, % of proliferation of nontreated control) is 102%; with SAOS-2 (osteosarcoma) (SAOS-2, c = 10 μM, 48 h, % of proliferation of nontreated control), 101%; in [7] (MCF7, c = 10 μM, 48 h, % of proliferation of nontreated control), 103%; in [8] (MOLT-4, c = 10 μM, 48 h, % of proliferation of nontreated control) it was 101%; in test [9] (10 μM single dose, 48-h interval, all tested cell lines), greater than 50%. Moreover, the IC50 on hAChE and on hBChE was greater than 100 µM each time.
